Legend:
Human gammaherpesvirus 4 [1] = test: Inhibition of TPA-induced Epstein-Barr virus early antigen activation in Raji cells after 48 hrs; format: functional, organism-based; settings: human gammaherpesvirus 4, Raji
Raji = test: Cell viability of Raji cells at 320 nM; format: functional, Homo sapiens
[2] = Scavenging activity against NO generation in human Chang liver cells assessed as inhibition of NOR1-activation at 350 nM relative to NOR1; format: functional
Human gammaherpesvirus 4 [3] = test: Inhibition of TPA-induced Epstein-Barr virus early antigen activation assessed as EBV-EA induction in Raji cells at 32 nM after 48 hrs relative to TPA; values are per cent of control; settings: human gammaherpesvirus 4, Raji
Human gammaherpesvirus 4 [4] = test: Inhibition of TPA-induced Epstein-Barr virus early antigen activation assessed as EBV-EA induction in Raji cells at 320 nM after 48 hrs relative to TPA; values are per cent of control; settings: human gammaherpesvirus 4, Raji
Human gammaherpesvirus 4 [5] = test: Inhibition of TPA-induced Epstein-Barr virus early antigen activation assessed as EBV-EA induction in Raji cells at 3.2 nM after 48 hrs relative to TPA; values are per cent of control; settings: human gammaherpesvirus 4, Raji
Human gammaherpesvirus 4 [6] = test: Inhibition of TPA-induced Epstein-Barr virus early antigen activation assessed as EBV-EA induction in Raji cells at 0.32 nM after 48 hrs relative to TPA; values are per cent of control; settings: human gammaherpesvirus 4, Raji

Structure (SMILES) | IC50 (Human gammaherpesvirus 4 [1]) [nM] | Activity (Raji) [%] | Activity [2] | level, % of control at 0.032 µM (Human gammaherpesvirus 4 [3]) [%] | level, % of control at 0.32 µM (Human gammaherpesvirus 4 [4]) [%] | level, % of control at 0.0032 µM (Human gammaherpesvirus 4 [5]) [%] | level, % of control at 0.00032 µM (Human gammaherpesvirus 4 [6]) [%]
C=C(CC[C@@H](C)[C@H]1CC[C@@]2(C)[C@@H]3CC[C@H]4C(C)(C)[C@@H](O)CC[C@@]45C[C@@]35CC[C@]12C)C(C)C | 8.8 | 70 | 1.7 | 23.2 | 0 | 68.1 | 91.4
C=C(CC[C@@H](C)[C@H]1CC[C@@]2(C)[C@@H]3CC[C@H]4[C@H](C)[C@@H](O)CC[C@@]45C[C@@]35CC[C@]12C)C(C)C [CYCLOEUCALENOL] | 8.9 | 70 | 1.7 | 26.5 | 0 | 68.1 | 94.8
CC1=C(/C=C/C(C)=C/C=C/C(C)=C/C=C/C=C(C)/C=C/C=C(C)/C=C/C2=C(C)CCCC2(C)C)C(C)(C)CCC1 [BETA CAROTENE] | 12.7 | 70 | – | 34.2 | 8.6 | 82.1 | 100
C=C(CC[C@@H](C)[C@H]1CC[C@@]2(C)[C@@H]3CC[C@H]4CC(=O)CC[C@@]45C[C@@]35CC[C@]12C)C(C)C | 10.2 | 70 | 1.5 | 33.2 | 0 | 73.8 | 95.6
CC(C)=C(C)CC[C@@H](C)[C@H]1CC[C@@]2(C)[C@@H]3CC[C@H]4C(C)(C)[C@@H](O)CC[C@@]45C[C@@]35CC[C@]12C [CYCLOBRANOL] | 9.4 | 70 | 1.9 | 30.5 | 0 | 71.3 | 94.5
CC(C)CCC[C@@H](C)[C@H]1CC[C@@]2(C)[C@@H]3CC[C@H]4[C@H](C)[C@@H](O)CC[C@@]45C[C@@]35CC[C@]12C | 9.9 | 70 | 1.5 | 31.5 | 0 | 72.6 | 95.6
CC(C)C(=O)CC[C@@H](C)[C@H]1CC[C@@]2(C)[C@@H]3CC[C@H]4C(C)(C)C(=O)CC[C@@]45C[C@@]35CC[C@]12C | 9 | 70 | 1.9 | 24 | 0 | 72.1 | 96.3
C=C(C)[C@@H](C)CC[C@@H](C)[C@H]1CC[C@@]2(C)[C@@H]3CC[C@H]4[C@H](C)[C@H](O)CC[C@@]45C[C@@]35CC[C@]12C | 9.3 | 70 | 1.8 | 29.3 | 0 | 71.5 | 94.5
CC(C)C(=O)CC[C@@H](C)[C@H]1CC[C@@]2(C)[C@@H]3CC[C@H]4C(C)(C)[C@@H](O)CC[C@@]45C[C@@]35CC[C@]12C | 8.1 | 70 | 2 | 19.8 | 0 | 62.7 | 90.5
CC(C)CCC[C@@H](C)[C@@H]1CC[C@@]2(C)[C@@H]3CC[C@H]4C(C)(C)[C@@H](O)CC[C@@]45C[C@@]35CC[C@]12C | 9.4 | 70 | 1.6 | 30.8 | 0 | 71.2 | 94.2
CC1(C)N([O])C(c2ccc(C(=O)O)cc2)=[N+]([O-])C1(C)C | – | – | 8 | – | – | – | –
CC(C)=CCC[C@@H](C)[C@H]1CC[C@@]2(C)[C@@H]3CC[C@H]4C(C)(C)C(=O)CC[C@@]45C[C@@]35CC[C@]12C [CYCLOARTENONE] | 8.8 | 70 | 1.5 | 24.6 | 2.3 | 71.3 | 92.6
C=C(CC[C@@H](C)[C@H]1CC[C@@]2(C)[C@@H]3CC[C@H]4[C@H](C)[C@@H](OC(C)=O)CC[C@@]45C[C@@]35CC[C@]12C)C(C)C [CYCLOEUCALENOL ACETATE] | 10.1 | 70 | 1.5 | 32.4 | 0 | 73.5 | 96.2
CC(C)C(C)CC[C@@H](C)[C@H]1CC[C@@]2(C)[C@@H]3CC[C@H]4[C@H](C)[C@@H](O)CC[C@@]45C[C@@]35CC[C@]12C (stereo not given in full) | 10 | 70 | 1.6 | 31.8 | 0 | 73.4 | 96.8
C=C(CC[C@@H](C)[C@H]1CC[C@@]2(C)[C@@H]3CC[C@H]4[C@@H](C)[C@@H](O)CC[C@@]45C[C@@]35CC[C@]12C)C(C)C | 9.5 | 70 | 1.5 | 29.9 | 0 | 72 | 95.1
COC(CC[C@@H](C)[C@H]1CC[C@@]2(C)[C@@H]3CC[C@H]4C(C)(C)C(=O)CC[C@@]45C[C@@]35CC[C@]12C)C(C)(C)O (stereo not given in full) | 8.8 | 70 | 1.9 | 21 | 0 | 67.1 | 94.6
C=C(C)[C@@H](CC)CC[C@@H](C)[C@H]1CC[C@@]2(C)[C@@H]3CC[C@H]4C(C)(C)[C@@H](O)CC[C@@]45C[C@@]35CC[C@]12C [POLYSTHICOL (24S)] | 8.8 | 70 | 2 | 28.9 | 0 | 69.1 | 93.1
CC(C)=CCC[C@@H](C)[C@H]1CC[C@@]2(C)[C@@H]3CC[C@H]4[C@H](C)[C@@H](O)CC[C@@]45C[C@@]35CC[C@]12C | 9.5 | 70 | 1.8 | 30.2 | 0 | 71.4 | 94.6
CC(=O)[C@H]1CC[C@@]2(C)[C@@H]3CC[C@H]4C(C)(C)C(=O)CC[C@@]45C[C@@]35CC[C@]12C | 8.9 | 70 | 1.5 | 22.1 | 0 | 70.3 | 94.6
C[C@H](C/C=C/C(C)(C)O)[C@H]1CC[C@@]2(C)[C@@H]3CC[C@H]4C(C)(C)C(=O)CC[C@@]45C[C@@]35CC[C@]12C | 8.6 | 70 | 1.9 | 20 | 0 | 67.2 | 90.1
CC(C)CCC[C@@H](C)[C@H]1CC[C@@]2(C)[C@@H]3CC[C@H]4C(C)(C)[C@@H](O)CC[C@@]45C[C@@]35CC[C@]12C [CYCLOARTANOL] | 9.4 | 70 | 1.8 | 30.2 | 0 | 70.2 | 95
CC(C)=CCC[C@@H](C)[C@H]1CC[C@@]2(C)[C@@H]3CC[C@H]4C(C)(C)[C@H](O)CC[C@@]45C[C@@]35CC[C@]12C | 9.2 | 70 | 1.8 | 29.7 | 0 | 70.3 | 93.7
CC1(C)[C@@H](O[C@H]2O[C@H](C(=O)O)[C@@H](O)[C@H](O)[C@H]2O[C@@H]2O[C@H](C(=O)O)[C@@H](O)[C@H](O)[C@H]2O)CC[C@]2(C)[C@H]3C(=O)C=C4[C@@H]5C[C@@](C)(C(=O)O)CC[C@]5(C)CC[C@@]4(C)[C@]3(C)CC[C@@H]12 [GLYCYRRHIZIN] | – | – | 2.2 | – | – | – | –
CC1=C(/C=C/C(C)=C/C=C/C(C)=C/C(=O)O)C(C)(C)CCC1 [TRETINOIN] | 15.4 | 60 | – | 49.3 | 21.6 | 76.3 | 100
COc1cc(/C=C/C(=O)CC(=O)/C=C/c2ccc(O)c(OC)c2)ccc1O [CURCUMIN] | 10.2 | 60 | – | 22.8 | 0 | 81.7 | 100

Source: ChEMBL document CHEMBL1143693, “Cancer chemopreventive effects of cycloartane-type and related triterpenoids in in vitro and in vivo models” (J Nat Prod, 2007)
